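Dose response: 5 concentrations. Exposure: 48 h. Format: 96-well plates. Endpoint: linear interpolation; highest concentration if not reached. GI50 = concentration required for 50% inhibition of growth.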 Calls of active or inactive are those of the source. No stated cut-off is given here; in the data, active = GI50 up to about 1.1 µM and inactive = higher.
What was measured:
Test in all cases: DTP human tumour cell line panel, 48 h
M19-MEL = test system: M19-MEL
RPMI-8226 = test system: RPMI-8226
SK-OV-3 = test system: SK-OV-3
NCI-H522 = test system: NCI-H522
OVCAR-8 = test system: OVCAR-8
CAKI-1 = test system: CAKI-1
OVCAR-5 = test system: OVCAR-5
NCI-H23 = test system: NCI-H23
SNB-19 = test system: SNB-19
HCT-116 = test system: HCT-116
SF-539 = test system: SF-539
KM12 = test system: KM12
UACC-62 = test system: UACC-62
A498 = test system: A498
M14 = test system: M14
SN12C = test system: SN12C

Measured: GI50

NC(=O)N1N=C2c3ccccc3CC[C@@H]2C1c1ccccc1 (some centres undefined)
inactive: M19-MEL > 100 µM | RPMI-8226 63.2 µM | SK-OV-3 > 100 µM | NCI-H522 61 µM | OVCAR-8 > 100 µM | CAKI-1 > 100 µM | OVCAR-5 > 100 µM | NCI-H23 > 100 µM | SNB-19 > 100 µM | HCT-116 > 100 µM | SF-539 > 100 µM | KM12 > 100 µM | UACC-62 > 100 µM | A498 > 100 µM | M14 > 100 µM | SN12C > 100 µM

CCCCNC(=NC#N)NCCCC
inactive: M19-MEL 83.4 µM | RPMI-8226 > 100 µM | SK-OV-3 > 100 µM | NCI-H522 > 100 µM | OVCAR-8 > 100 µM | CAKI-1 > 100 µM | OVCAR-5 > 100 µM | NCI-H23 > 100 µM | SNB-19 > 100 µM | HCT-116 > 100 µM | SF-539 > 100 µM | KM12 > 100 µM | UACC-62 > 100 µM | A498 > 100 µM | M14 > 100 µM | SN12C > 100 µM

C/C(=N\NS(=O)(=O)c1ccc([N+](=O)[O-])cc1)c1ccc[n+]([O-])n1
inactive: M19-MEL 2.04 µM | RPMI-8226 2.16 µM | SK-OV-3 2.64 µM | NCI-H522 1.95 µM | OVCAR-8 1.76 µM | CAKI-1 2.32 µM | OVCAR-5 2.63 µM | NCI-H23 1.7 µM | SNB-19 3.24 µM | HCT-116 1.72 µM | SF-539 2.08 µM | KM12 2.39 µM | UACC-62 1.21 µM | A498 1.98 µM | M14 1.8 µM | SN12C 2.97 µM

CCOC(=O)/N=C(\N)SCc1ccccc1
inactive: M19-MEL > 100 µM | RPMI-8226 34.3 µM | SK-OV-3 > 100 µM | NCI-H522 > 100 µM | OVCAR-8 > 100 µM | CAKI-1 > 100 µM | OVCAR-5 > 100 µM | NCI-H23 > 100 µM | SNB-19 > 100 µM | HCT-116 > 100 µM | SF-539 > 100 µM | KM12 > 100 µM | UACC-62 > 100 µM | A498 > 100 µM | M14 > 100 µM | SN12C > 100 µM

COc1ccc(/C=C2\CN(C)Cc3c2nc(N)nc3-c2ccc(OC)cc2)cc1
inactive: M19-MEL 95.3 µM | RPMI-8226 24.6 µM | SK-OV-3 > 100 µM | NCI-H522 41.3 µM | OVCAR-8 49.3 µM | CAKI-1 > 100 µM | OVCAR-5 > 100 µM | NCI-H23 > 100 µM | SNB-19 > 100 µM | HCT-116 > 100 µM | SF-539 > 100 µM | KM12 61.2 µM | UACC-62 87.1 µM | A498 > 100 µM | M14 69.3 µM | SN12C > 100 µM

O=C1C(Cl)C(c2ccc(O)cc2)N1n1cnc2ccccc2c1=O (centres undefined)
inactive: M19-MEL 22.2 µM | RPMI-8226 19 µM | SK-OV-3 > 100 µM | NCI-H522 16.6 µM | OVCAR-8 16.1 µM | CAKI-1 31.5 µM | OVCAR-5 > 79.8 µM | NCI-H23 31 µM | SNB-19 > 100 µM | HCT-116 17.1 µM | SF-539 31.9 µM | KM12 51.1 µM | UACC-62 18.7 µM | A498 > 100 µM | M14 30.5 µM | SN12C 35.2 µM

O=[N+]([O-])c1ccc(C2CC(c3ccc(NCc4nc5ccccc5[nH]4)cc3)=NO2)cc1 (centres undefined)
inactive: M19-MEL 33.7 µM | RPMI-8226 18.5 µM | SK-OV-3 > 100 µM | NCI-H522 27.9 µM | OVCAR-8 37.7 µM | CAKI-1 > 100 µM | OVCAR-5 > 100 µM | NCI-H23 34.6 µM | SNB-19 37.3 µM | HCT-116 27.4 µM | SF-539 > 100 µM | KM12 21.1 µM | UACC-62 70.3 µM | A498 15.3 µM | M14 33.5 µM | SN12C 30.7 µM

COc1ccc(/C=C/c2cc(OC)c(O[Si](C)(C)C(C)(C)C)c(OC)c2)cc1
inactive: M19-MEL 46.5 µM | RPMI-8226 45 µM | SK-OV-3 > 100 µM | NCI-H522 > 100 µM | OVCAR-8 > 100 µM | CAKI-1 > 100 µM | OVCAR-5 64.9 µM | NCI-H23 17.2 µM | SNB-19 > 100 µM | HCT-116 55.6 µM | SF-539 > 100 µM | KM12 > 100 µM | UACC-62 75.2 µM | A498 > 100 µM | M14 > 100 µM | SN12C > 100 µM

O=S(=O)(c1ccccc1)C1CN2OC1(S(=O)(=O)c1ccccc1)CC2c1ccc(Br)cc1 (centres undefined)
inactive: M19-MEL > 100 µM | RPMI-8226 > 100 µM | SK-OV-3 > 100 µM | NCI-H522 34 µM | OVCAR-8 > 100 µM | CAKI-1 60 µM | OVCAR-5 > 100 µM | NCI-H23 > 100 µM | SNB-19 46.8 µM | HCT-116 > 100 µM | SF-539 17.7 µM | KM12 > 100 µM | UACC-62 > 100 µM | A498 96.4 µM | M14 > 100 µM | SN12C > 100 µM
